Laboratory results as given in patent US20220202912A1, “Polypeptides in Preparation of Drugs for Treatment or Prevention of Rheumatoid Arthritis” (priority 2011, published 2022).
Where no end group is shown, it is not given here.

Experiments:
IL-6 = assay: immunohistochemistry of IL-6 in spleen and thymus, AIA transgenic TNF-luc mice; format: in vivo, BALB/c transgenic TNF-luc mice; conditions: Adalimumab 8 mg/kg, mPEG-SC20k-HM-3 20 mg/kg
Protocol: (§1) Changes of expression of TNF-α and IL-6 are analyzed by HE staining and immunohistochemistry in the ankle joint, spleen and thymus of the mice. Observation and photographing are performed under the FOVs of ×200 and ×400 times respectively, 5 FOVs are taken randomly for each picture, and data statistics is performed.

TNF-α [1] = assay: in vivo imaging of TNF-α expression, CIA transgenic TNF-luc mice; set-up: species or system BALB/c transgenic TNF-luc mice; conditions: day 36; Adalimumab 8 mg/kg, mPEG-SC20k-HM-3 20 mg/kg
Protocol: […] After the mice are lightly anesthetized with ether, the mice are fixed within 5-20 min and put into an in vivo imager, the imager is covered with an instrument lid, on-fluro and om-photo names in the desktop imaging interface of the computer are clicked, and the expose button is clicked to complete the fluorescence and white light photos of mice in vivo imaging. The specific imaging principle, operation steps, image processing and output are the same as those in the previous embodiment.

TNF-α [2] = assay: immunohistochemistry of TNF-α in ankle joints, CIA transgenic TNF-luc mice; format: in vivo, BALB/c transgenic TNF-luc mice; conditions: Adalimumab 8 mg/kg, mPEG-SC20k-HM-3 20 mg/kg
Protocol: Determining criteria: The experimental results are determined based on the proportion of positive cells in all tissue cells and the staining intensity of positive cells: A: scoring is performed based on the number of chromogenic cells, 1 point is given when the proportion of the number of positive cells is less than ⅓, 2 points are given when the proportion of the number of positive cells is ⅓-⅔, and 3 points are given when the proportion of the number of positive cells is greater than or equal to ⅔. B: Based on the color depth of cells, 0 point is given when no cells have positive reaction, 1 point is given when cells are light yellow, 2 points are given when the cells are light brown, and 3 points are given when the cells are dark brown. Point product=A×B. The result is expressed in point product.

[3] = system: AIA transgenic TNF-luc mice; assay: adjuvant-induced arthritis in transgenic TNF-luc mice (swelling, scores, weight, HE staining); format: in vivo, BALB/c transgenic TNF-luc mice; set-up: right ankle swelling / left ankle swelling / left toe swelling / right toe swelling / changes of weight (added value): unit not given here; conditions: Adalimumab 8 mg/kg; for HE staining of ankle joints: pathological symptoms vs model group: mPEG-SC20k-HM-3 20 mg/kg
Protocol: 8 animals are randomly divided into 4 groups (n=2), a normal group, a model group, a positive drug group and a test group. On day 0, the initial left and right ankle thicknesses, initial left and right foot palm thicknesses and initial left and right toe thicknesses of each group of mice are measured. On day 0, 50 μL/mouse complete Freund's adjuvant is injected into the bottom of the left toe of each group of mice, and the treatment is started after secondary inflammation appears in the right foot of each group of mice on day 17. On day 17, the normal group and the model group are hypodermically injected with 0.9% normal saline (0.2 mL/20 g of body weight), once every 2 days, 7 times in total. The positive drug Adalimumab group is hypodermically injected with Adalimumab (8 mg/kg of body weight), once every 15 days, once in total. The test group is hypodermically injected with mPEG-SC20k-HM-3 (20 mg/kg of body weight), once every 2 days, 7 times in total. The treatment lasts for 15 days. Then, medication is stopped for observation for one week, and the mice are killed one week later.
On day 0, the initial ankle widths, foot palm widths and toe thicknesses of left and right feet are measured with a vernier caliper as initial values. Every 2 days, the left and right ankle widths, foot palm widths and toe thicknesses of each group of mice are measured separately with the vernier caliper, and compared with the initial values to calculate the changes in the swelling degree.
The joints of the mouse paw are observed with naked eyes, and the joints are scored every 2 days from day 17. Scoring is performed in terms of level 0 to level 4, 5 levels in total.
After the secondary inflammation appears, systemic scoring is performed every 2 days.
as §1

[4] = 0 d, before treatment (starts day 17), mPEG-SC20k-HM-3 20 mg/kg groups
[5] = 1 d, before treatment (starts day 17), mPEG-SC20k-HM-3 20 mg/kg groups
[6] = 3 d, before treatment (starts day 17), mPEG-SC20k-HM-3 20 mg/kg groups
[7] = 6 d, before treatment (starts day 17), mPEG-SC20k-HM-3 20 mg/kg groups
[8] = 9 d, before treatment (starts day 17), mPEG-SC20k-HM-3 20 mg/kg groups
[9] = 12 d, before treatment (starts day 17), mPEG-SC20k-HM-3 20 mg/kg groups
[10] = 15 d, before treatment (starts day 17), mPEG-SC20k-HM-3 20 mg/kg groups
[11] = 16 d, before treatment (starts day 17), mPEG-SC20k-HM-3 20 mg/kg groups
[12] = 17 d (treatment starts), mPEG-SC20k-HM-3 20 mg/kg sc
[13] = 19 d, mPEG-SC20k-HM-3 20 mg/kg sc
[14] = 22 d, mPEG-SC20k-HM-3 20 mg/kg sc
[15] = 25 d, mPEG-SC20k-HM-3 20 mg/kg sc
[16] = 28 d, mPEG-SC20k-HM-3 20 mg/kg sc
[17] = 31 d, mPEG-SC20k-HM-3 20 mg/kg sc
[18] = 20 d, mPEG-SC20k-HM-3 20 mg/kg sc
[19] = 23 d, mPEG-SC20k-HM-3 20 mg/kg sc
[20] = 26 d, mPEG-SC20k-HM-3 20 mg/kg sc
[21] = 29 d, mPEG-SC20k-HM-3 20 mg/kg sc
[22] = 32 d, mPEG-SC20k-HM-3 20 mg/kg sc

mPEG-SC20k-Ile-Val-Arg-Arg-Ala-Asp-Arg-Ala-Ala-Val-Pro-Gly-Gly-Gly-Gly-Arg-Gly-Asp ({mPEG‑SC 20k}-IVRRADRAAVPGGGGRGD) [polypeptide III, No. 3]
immunohistochemical score of IL-6 in spleen (IL-6): 0.006±0.002 | immunohistochemical score of IL-6 in thymus (IL-6): 0.068±0.033 | in vivo fluorescence densities (TNF-α [1]): 19.02±9.69 10^5 | immunohistochemical score of TNF-α in ankle joint cavity (TNF-α [2]): 0.143±0.055 | changes of weight (added value) [3, 4]: 0.00 ± 0.00 | left ankle swelling [3, 4]: 0.000 ± 0.000 | left foot (palm) swelling [3, 4]: 0.000 ± 0.000 | left toe swelling [3, 4]: 0.000 ± 0.000 | left ankle swelling [3, 5]: 0.188 ± 0.018 | left foot (palm) swelling [3, 5]: 0.163 ± 0.052 | left toe swelling [3, 5]: 0.255 ± 0.027 | changes of weight (added value) [3, 6]: 0.27 ± 0.06 | left ankle swelling [3, 6]: 0.204 ± 0.074 | left foot (palm) swelling [3, 6]: 0.174 ± 0.088 | left toe swelling [3, 6]: 0.225 ± 0.106 | changes of weight (added value) [3, 7]: 0.28 ± 0.25 | left ankle swelling [3, 7]: 0.265 ± 0.031 | left foot (palm) swelling [3, 7]: 0.207 ± 0.055 | left toe swelling [3, 7]: 0.261 ± 0.126 | changes of weight (added value) [3, 8]: 0.40 ± 0.39 | left ankle swelling [3, 8]: 0.251 ± 0.029 | left foot (palm) swelling [3, 8]: 0.224 ± 0.062 | left toe swelling [3, 8]: 0.260 ± 0.156 | changes of weight (added value) [3, 9]: 0.42 ± 0.66 | left ankle swelling [3, 9]: 0.265 ± 0.028 | left foot (palm) swelling [3, 9]: 0.228 ± 0.054 | left toe swelling [3, 9]: 0.303 ± 0.103 | changes of weight (added value) [3, 10]: 0.67 ± 1.06 | left ankle swelling [3, 11]: 0.274 ± 0.020 | left foot (palm) swelling [3, 11]: 0.221 ± 0.041 | left toe swelling [3, 11]: 0.294 ± 0.092 | right ankle swelling [3, 11]: 0.024 ± 0.011 | right foot palm swelling [3, 11]: 0.007 ± 0.007 | right toe swelling [3, 11]: 0.015 ± 0.021 | joint index score [3, 12]: 7.50 ± 0.70 | whole body (systemic) score [3, 12]: 5.50 ± 0.70 | changes of weight (added value) [3, 13]: 0.97 ± 1.09 | left ankle swelling [3, 13]: 0.297 ± 0.005 | right ankle swelling [3, 13]: 0.019 ± 0.009 | right foot palm swelling [3, 13]: 0.010 ± 0.011 | changes of weight (added value) [3, 14]: 0.82 ± 0.57 | left ankle swelling [3, 14]: 0.252 ± 0.006 | right foot palm swelling [3, 14]: 0.003 ± 0.016 | changes of weight (added value) [3, 15]: 0.61 ± 0.72 | left ankle swelling [3, 15]: 0.219 ± 0.013 | left toe swelling [3, 15]: 0.292 ± 0.107 | right toe swelling [3, 15]: 0.015 ± 0.027 | changes of weight (added value) [3, 16]: 1.13 ± 0.18 | right ankle swelling [3, 16]: 0.021±0.013 | changes of weight (added value) [3, 17]: 1.15 ± 0.40 | left toe swelling [3, 17]: 0.270 ± 0.127 | HE staining of ankle joints: pathological symptoms vs model group [3]: relieved to some extent

Adalimumab [reference compound]
immunohistochemical score of IL-6 in spleen (IL-6): 0.013±0.010 | immunohistochemical score of IL-6 in thymus (IL-6): 0.039±0.041 | in vivo fluorescence densities (TNF-α [1]): 20.76±4.43 10^5 | immunohistochemical score of TNF-α in ankle joint cavity (TNF-α [2]): 0.160±0.109 | changes of weight (added value) [3, 4]: 0.00 ± 0.00 | left ankle swelling [3, 4]: 0.000 ± 0.000 | left foot (palm) swelling [3, 4]: 0.000 ± 0.000 | left toe swelling [3, 4]: 0.000 ± 0.000 | left ankle swelling [3, 5]: 0.239 ± 0.033 | left foot (palm) swelling [3, 5]: 0.236 ± 0.062 | left toe swelling [3, 5]: 0.326 ± 0.028 | changes of weight (added value) [3, 6]: 0.07 ± 0.15 | left ankle swelling [3, 6]: 0.262 ± 0.071 | left foot (palm) swelling [3, 6]: 0.289 ± 0.016 | left toe swelling [3, 6]: 0.323 ± 0.086 | changes of weight (added value) [3, 7]: 0.09 ± 0.54 | left ankle swelling [3, 7]: 0.226 ± 0.023 | left foot (palm) swelling [3, 7]: 0.272 ± 0.057 | left toe swelling [3, 7]: 0.272 ± 0.076 | changes of weight (added value) [3, 8]: 0.07 ± 0.25 | left ankle swelling [3, 8]: 0.260 ± 0.020 | left foot (palm) swelling [3, 8]: 0.302 ± 0.003 | left toe swelling [3, 8]: 0.298 ± 0.122 | changes of weight (added value) [3, 9]: 0.25 ± 0.83 | left ankle swelling [3, 9]: 0.264 ± 0.018 | left foot (palm) swelling [3, 9]: 0.295 ± 0.021 | left toe swelling [3, 9]: 0.328 ± 0.079 | changes of weight (added value) [3, 10]: 0.16 ± 0.66 | left ankle swelling [3, 11]: 0.265 ± 0.021 | left foot (palm) swelling [3, 11]: 0.271 ± 0.064 | left toe swelling [3, 11]: 0.328 ± 0.065 | right ankle swelling [3, 11]: 0.010 ± 0.006 | right foot palm swelling [3, 11]: 0.010 ± 0.006 | right toe swelling [3, 11]: 0.011 ± 0.033 | joint index score [3, 12]: 7.50 ± 0.70 | whole body (systemic) score [3, 12]: 7.00 ± 1.40 | changes of weight (added value) [3, 13]: 0.44 ± 0.60 | left ankle swelling [3, 13]: 0.254 ± 0.018 | left foot (palm) swelling [3, 13]: 0.247 ± 0.078 | left toe swelling [3, 13]: 0.311 ± 0.033 | right ankle swelling [3, 13]: 0.010 ± 0.014 | right foot palm swelling [3, 13]: 0.029 ± 0.001 | right toe swelling [3, 13]: 0.012 ± 0.037 | joint index score [3, 18]: 7.50 ± 0.70 | whole body (systemic) score [3, 18]: 6.50 ± 2.10 | changes of weight (added value) [3, 14]: 0.62 ± 0.48 | left ankle swelling [3, 14]: 0.235 ± 0.013 | left foot (palm) swelling [3, 14]: 0.249 ± 0.126 | left toe swelling [3, 14]: 0.248 ± 0.136 | right foot palm swelling [3, 14]: 0.004 ± 0.003 | right toe swelling [3, 14]: 0.002 ± 0.042 | joint index score [3, 19]: 8.00 ± 0.00 | whole body (systemic) score [3, 19]: 4.50 ± 2.10 | changes of weight (added value) [3, 15]: 0.55 ± 0.02 | left ankle swelling [3, 15]: 0.218 ± 0.028 | left foot (palm) swelling [3, 15]: 0.234 ± 0.040 | left toe swelling [3, 15]: 0.309 ± 0.058 | right foot palm swelling [3, 15]: 0.013 ± 0.016 | right toe swelling [3, 15]: 0.004 ± 0.040 | joint index score [3, 20]: 6.50 ± 0.70 | whole body (systemic) score [3, 20]: 4.00 ± 1.40 | changes of weight (added value) [3, 16]: 0.77 ± 0.33 | left foot (palm) swelling [3, 16]: 0.258 ± 0.042 | left toe swelling [3, 16]: 0.285 ± 0.075 | right foot palm swelling [3, 16]: 0.008 ± 0.006 | right toe swelling [3, 16]: 0.009 ± 0.035 | joint index score [3, 21]: 6.50 ± 0.70 | whole body (systemic) score [3, 21]: 4.00 ± 1.40 | changes of weight (added value) [3, 17]: 1.02 ± 0.98 | left foot (palm) swelling [3, 17]: 0.235 ± 0.061 | left toe swelling [3, 17]: 0.290 ± 0.023 | right foot palm swelling [3, 17]: 0.010 ± 0.003 | right toe swelling [3, 17]: 0.003 ± 0.021 | joint index score [3, 22]: 6.50 ± 0.70 | whole body (systemic) score [3, 22]: 3.50 ± 0.70 | HE staining of ankle joints: pathological symptoms vs model group [3]: relieved to some extent
